The values below come from paper PMC7367873, “Dissecting the sequence determinants for dephosphorylation by the catalytic subunits of phosphatases PP1 and PP2A” (Nature Communications, 2020).

In one assay the test system is PP1c/PP2Ac. Put plainly: PP1c versus PP2Ac specificity of p-sites (pairwise comparison / hierarchical clustering of phosphoproteomic data). The note with it: for share of substrates specific to the phosphatase: hierarchical clustering; for number of specific sequences (cluster size): hierarchical clustering after one-way ANOVA. It is filed as biochemical, human. The procedure:
(§1) For phosphoproteomics, HeLa Kyoto cells were incubated with 20 nM Calyculin A (CST, #9902) for 10–15 min. This time point was determined empirically to yield maximal phosphatase inhibition without cells showing pleiotropic effects. Subsequently, cells were placed on ice and washed twice with cold PBS and scraped in lysis buffer (100 mM NaCl, 10 mM Tris, 0.1% IGEPAL, 1 mM EDTA, 1 mM EGTA, 20 nM Calyculin A, 1x cOmplete Mini protease inhibitor cocktail (Sigma), 1 mM DTT, 1 mM MnCl2, pH 7.5). After 10 pushes through an injection needle (21 G, BD), lysate was cleared from the insoluble fraction by centrifugation (10 min, 10^4 rcf, 4 °C). Protein concentration was then determined by a Bradford Assay and equal amounts of 1 mg total protein were incubated with recombinant PP1c/PP2Ac or buffer at a final phosphatase concentration of 1 µM in a total volume of 200 µL for 1 h at 30 °C. Lysates were then immediately placed on ice. PhosStop […] (Roche) was added and proteins were denatured by adding urea to a final concentration of 8 M taking into account the volume increase. Samples were then snap-frozen in liquid nitrogen for storage and subsequent MS analysis.
Downstream analysis of the phosphoproteomic datasets was carried out using the software tool Perseus[66]. For analysis of phosphoproteomic experiments, row-wise, median-normalized data (see previous section) was linked to known regulatory sites by PhosphoSitePlus entries and categorical columns for treatments were assigned. Reverse peptides and potential contaminants were filtered. Next, categorical columns for biological functions and treatments were assigned. TMT reporter intensities were then transformed into log2. At this point, all data were then filtered for valid values in all three replicates of at least one condition. Next, the distribution of TMT reporter intensities was assessed visually by plotting count-based histogramms and in a multiscatter plot using the Pearson correlation as an estimate of reproducibility. Next, NA (=not available: missing) values were replaced by imputation from a normal distribution (width 0.3, down-shift 1.8, per column). The data quality was routinely assessed by two means: First, by plotting a histogram of peptide length vs. counts and visualization of imputed values to confirm a normal distribution of the data, and secondly by principal component analysis (default settings in Perseus) to judge the sample grouping.
For hierarchical clustering, the results of the one-way ANOVA were processed for two more steps in Perseus: first data were filtered for significant hits from the one-way ANOVA and then subjected to z-transformation. Hierarchical clustering images were produced using Euclidean distance, 300 clusters and 10 rounds of iteration.
Also all further data processing for protein enrichment and extraction of protein sequences in positions −5 to +5 relative to the p-sites of interest for subsequent motif analysis was performed using RStudio with R v3.3.2 using the packages tidyverse and BioStrings. In order to study the sequence specificity of PP1c and PP2Ac on the protein level, position specific probability matrices, representing the relative occurrence for each amino acid surrounding pSer/pThr were produced by extracting sequence information in positions −5 to +5 for all PP1c/PP2Ac-sensitive class I p-sites. Next, the count for each amino acid in each position was divided by the total of all counts for a certain position, resulting in relative abundance. […] Importantly, amino acids with less than 25 counts in PP1-sensitive/-insensitive or PP2A-sensitive/insensitive comparisons were excluded. For calculating a heat map directly comparing PP1c against PP2Ac, these fold changes were divided. […] Obtained p-values were adjusted for multiple testing using the method of Benjamini and Hochberg.
PP1c/PP2Ac-sensitive class I sites were divided into three classes as illustrated for PP1c in Supplementary Fig. 4c. […]

The next assay has as its target T1, PP2Ac (Homo sapiens, UniProt P67775).
T1 construct: purchased Cayman Chemical 10011237
Put plainly: Phosphoproteome dephosphorylation assay of HeLa Kyoto lysate with recombinant PP2Ac (TMT phosphoproteomics). Format: biochemical. The note with it: 1 µM recombinant phosphatase, 1 h at 30 °C, 20 nM Calyculin A, three replicates. The procedure: as §1
Treated lysates were reduced (10 mM DTT, 30 °C, 30 min) and alkylated (50 mM chloroacetamide, room temperature, 30 min, in the dark), and then diluted to 1.3 M urea using 40 mM Tris-HCl (pH 7.6). […]

T1 sequence (P67775 1-308 limits assumed): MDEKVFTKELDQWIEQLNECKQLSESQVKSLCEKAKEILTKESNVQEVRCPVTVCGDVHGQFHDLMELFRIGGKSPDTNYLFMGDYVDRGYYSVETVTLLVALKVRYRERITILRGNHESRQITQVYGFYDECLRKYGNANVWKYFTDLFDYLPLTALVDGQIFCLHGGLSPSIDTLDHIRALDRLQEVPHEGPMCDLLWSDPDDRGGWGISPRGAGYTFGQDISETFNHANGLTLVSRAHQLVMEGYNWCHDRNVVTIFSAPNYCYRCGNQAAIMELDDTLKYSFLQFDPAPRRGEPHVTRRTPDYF

For “PP1c: recombinant catalytic subunit of PP1”, in the assay on PP1c/PP2Ac, the “share of substrates specific to the phosphatase” value came to 28% and the “number of specific sequences (cluster size)” value is reported as 777 sequences.
For the substance “PP2Ac: His-tagged recombinant PPP2CA ΔL309, purchased from Cayman Chemical”, in the assay on PP1c/PP2Ac, the “share of substrates specific to the phosphatase” value is recorded as 24% and the “number of specific sequences (cluster size)” value was determined as 663 sequences. For the same substance, the “number of class I p-sites dephosphorylated by PP2A” value with PP2Ac was 1840 p-sites.
